Active and inactive are the calls of the source. Rule as the data show it: actives have a measured IC50 and inactives only a lower limit.
How the values were obtained:
Assay type in all cases: functional
[1] = target: T1, Sentrin-specific protease 8 (Homo sapiens, UniProt Q96LD8);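 also: luminescence read-out of SENP8 inhibition, dose-response confirmation following an ultra-high-throughput screen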
T1 sequence (Q96LD8 whole entry): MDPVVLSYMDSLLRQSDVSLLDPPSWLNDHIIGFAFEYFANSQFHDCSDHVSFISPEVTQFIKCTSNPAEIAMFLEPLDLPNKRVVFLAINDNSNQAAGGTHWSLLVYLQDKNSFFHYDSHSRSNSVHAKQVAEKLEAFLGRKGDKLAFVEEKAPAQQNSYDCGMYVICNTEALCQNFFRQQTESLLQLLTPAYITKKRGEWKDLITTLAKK

[2] = target: T2, Sentrin-specific protease 6 (Homo sapiens, UniProt Q9GZR1);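 also: Luminescence-based dose-response confirmatory assay of SENP6 inhibition, following up an ultra-high-throughput screen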
T2 sequence (Q9GZR1 whole entry): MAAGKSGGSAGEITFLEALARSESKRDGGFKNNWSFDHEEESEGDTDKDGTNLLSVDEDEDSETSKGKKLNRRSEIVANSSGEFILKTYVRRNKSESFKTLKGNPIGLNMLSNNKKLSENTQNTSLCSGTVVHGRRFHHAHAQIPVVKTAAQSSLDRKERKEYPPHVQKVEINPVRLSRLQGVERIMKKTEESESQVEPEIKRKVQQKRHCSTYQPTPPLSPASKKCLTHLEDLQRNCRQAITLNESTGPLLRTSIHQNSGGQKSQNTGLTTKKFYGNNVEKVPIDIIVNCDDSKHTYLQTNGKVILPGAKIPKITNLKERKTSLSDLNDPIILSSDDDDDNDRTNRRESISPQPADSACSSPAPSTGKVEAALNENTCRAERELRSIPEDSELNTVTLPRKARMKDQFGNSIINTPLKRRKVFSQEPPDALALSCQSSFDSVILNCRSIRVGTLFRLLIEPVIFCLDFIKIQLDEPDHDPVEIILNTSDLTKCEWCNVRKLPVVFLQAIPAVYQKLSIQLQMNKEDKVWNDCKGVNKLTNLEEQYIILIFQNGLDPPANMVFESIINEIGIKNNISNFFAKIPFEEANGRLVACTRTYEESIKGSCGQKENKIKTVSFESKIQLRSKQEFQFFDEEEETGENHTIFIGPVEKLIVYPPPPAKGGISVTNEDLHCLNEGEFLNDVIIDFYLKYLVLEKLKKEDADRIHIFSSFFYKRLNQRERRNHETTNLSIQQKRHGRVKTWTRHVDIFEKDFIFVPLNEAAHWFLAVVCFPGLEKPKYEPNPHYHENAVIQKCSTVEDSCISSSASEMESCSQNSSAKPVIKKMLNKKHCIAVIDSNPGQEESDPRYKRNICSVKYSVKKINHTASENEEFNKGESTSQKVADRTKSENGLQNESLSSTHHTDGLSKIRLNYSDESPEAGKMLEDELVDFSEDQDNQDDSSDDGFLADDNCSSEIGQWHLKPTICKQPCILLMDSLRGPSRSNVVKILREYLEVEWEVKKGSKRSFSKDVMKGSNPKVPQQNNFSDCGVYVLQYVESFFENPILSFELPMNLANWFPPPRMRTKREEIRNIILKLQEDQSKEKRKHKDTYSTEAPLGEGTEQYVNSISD

[3] = target: T3, Sentrin-specific protease 7 (Homo sapiens, UniProt Q9BQF6);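 also: Luminescence-based dose-response confirmation of ultra-high-throughput screening hits, measuring inhibition of SENP7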
T3 sequence (Q9BQF6 whole entry): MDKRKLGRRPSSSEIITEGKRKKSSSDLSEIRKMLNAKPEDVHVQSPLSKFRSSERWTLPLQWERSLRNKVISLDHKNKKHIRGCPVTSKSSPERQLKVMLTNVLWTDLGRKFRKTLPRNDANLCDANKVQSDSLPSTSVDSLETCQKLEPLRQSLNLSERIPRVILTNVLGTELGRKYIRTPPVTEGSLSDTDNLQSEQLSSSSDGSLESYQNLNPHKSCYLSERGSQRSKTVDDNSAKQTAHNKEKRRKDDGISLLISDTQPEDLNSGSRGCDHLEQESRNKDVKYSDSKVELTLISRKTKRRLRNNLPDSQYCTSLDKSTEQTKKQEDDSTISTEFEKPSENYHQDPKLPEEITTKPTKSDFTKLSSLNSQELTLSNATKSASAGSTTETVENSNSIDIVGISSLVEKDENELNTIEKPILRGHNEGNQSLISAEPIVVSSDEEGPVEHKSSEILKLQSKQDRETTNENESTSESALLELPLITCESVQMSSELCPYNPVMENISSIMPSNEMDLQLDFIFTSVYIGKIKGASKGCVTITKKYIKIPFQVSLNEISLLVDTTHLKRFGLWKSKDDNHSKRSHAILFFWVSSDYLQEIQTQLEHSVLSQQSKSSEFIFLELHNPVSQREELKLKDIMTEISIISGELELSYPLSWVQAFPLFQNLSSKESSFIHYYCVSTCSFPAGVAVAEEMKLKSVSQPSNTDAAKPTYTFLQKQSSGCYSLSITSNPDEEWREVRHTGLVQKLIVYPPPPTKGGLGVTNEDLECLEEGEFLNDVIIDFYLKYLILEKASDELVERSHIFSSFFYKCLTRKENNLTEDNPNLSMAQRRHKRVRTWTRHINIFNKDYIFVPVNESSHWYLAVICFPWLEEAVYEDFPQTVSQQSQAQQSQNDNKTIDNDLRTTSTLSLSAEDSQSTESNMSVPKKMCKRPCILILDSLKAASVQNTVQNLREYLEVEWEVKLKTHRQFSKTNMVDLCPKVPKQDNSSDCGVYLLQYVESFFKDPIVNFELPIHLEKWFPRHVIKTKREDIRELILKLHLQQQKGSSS

Caspase-3 = target: T4, Caspase-3 (Homo sapiens, UniProt P42574);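 also: Dose-response selectivity test against caspase-3 for candidate inhibitors of sentrin-specific proteases (SENPs)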
T4 sequence (P42574 whole entry): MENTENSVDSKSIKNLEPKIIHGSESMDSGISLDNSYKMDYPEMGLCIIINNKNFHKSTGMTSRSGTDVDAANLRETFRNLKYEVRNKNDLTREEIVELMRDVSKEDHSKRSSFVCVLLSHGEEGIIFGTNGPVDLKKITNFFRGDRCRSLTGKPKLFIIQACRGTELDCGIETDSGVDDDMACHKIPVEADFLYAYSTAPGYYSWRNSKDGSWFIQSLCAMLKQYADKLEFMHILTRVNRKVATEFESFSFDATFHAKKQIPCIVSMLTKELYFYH

Measured: IC50

O=[N+]([O-])c1ccc(O)c(C2=NNC(c3ccccc3F)C2)c1 (stereo not drawn)
active: [1] 54.5 µM | [2] 43.5 µM | [3] 41.6 µM | Caspase-3 68.6 µM

Cc1oc2c(c1C(=O)N1CCC(C)CC1)C(=O)c1ccccc1C2=O
active: [1] 23.6 µM | [2] 13.7 µM | [3] 40.6 µM | Caspase-3 10.2 µM

Source: ChEMBL document CHEMBL1201862, “PubChem BioAssay data set” (2004)
